# Test results taken from publication PMC3560935 (Anesthesiology, 2011).
# Entries after “also recorded” stand apart in the source; their conditions may differ.
# Columns and labels:
# [1] = administered intracerebroventricularly; cited from earlier work
# Swiss-Webster mice [2] = settings: mouse, in vivo
# [3] = target: human nociceptin receptor (Homo sapiens, UniProt P41146); assay type: binding
# Swiss-Webster mice [4] = settings: mouse, in vivo; remark: listed apart in the source
# [5] = mouse, in vivo
# Swiss-Webster mice [6] = settings: mouse, in vivo; remark: listed apart in the source
# Sequence of human nociceptin receptor (P41146 whole entry): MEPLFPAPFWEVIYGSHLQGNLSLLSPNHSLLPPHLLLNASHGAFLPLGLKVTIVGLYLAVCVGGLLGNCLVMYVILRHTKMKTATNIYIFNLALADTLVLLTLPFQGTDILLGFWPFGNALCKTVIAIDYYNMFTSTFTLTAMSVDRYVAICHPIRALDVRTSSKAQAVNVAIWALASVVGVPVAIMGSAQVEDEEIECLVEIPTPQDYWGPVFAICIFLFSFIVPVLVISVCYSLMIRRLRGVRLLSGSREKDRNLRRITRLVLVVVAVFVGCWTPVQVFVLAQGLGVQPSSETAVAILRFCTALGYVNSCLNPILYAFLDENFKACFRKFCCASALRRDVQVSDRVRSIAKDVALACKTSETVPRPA
compound,measurement,setting,value
CN1CC[C@]23c4c5ccc(O)c4O[C@H]2[C@@H](O[C@@H]2O[C@H](C(=O)O)[C@@H](O)[C@H](O)[C@H]2O)C=C[C@H]3[C@H]1C5 [Morphine-6-glucuronide],potency relative to morphine,[1],300 times
Buprenorphine,dose with the greatest analgesic response,Swiss-Webster mice [2],0.3 mg/kg
same,time to onset of antinociception,Swiss-Webster mice [2],30 min
same,time to peak antinociceptive effect,Swiss-Webster mice [2],45 min
same,affinity for the nociceptin receptor (in words),[3],low affinity
"CO[C@]12CC[C@@]3(C[C@@H]1[C@](C)(O)C(C)(C)C)[C@H]1Cc4ccc(O[C@@H]5O[C@H](C(=O)O)[C@@H](O)[C@H](O)[C@H]5O)c5c4[C@@]3(CCN1CC1CC1)[C@H]2O5 [Buprenorphine-3-glucuronide, buprenorphine-3-glucuronide]",antinociceptive effect (in words),Swiss-Webster mice [2],small antinociceptive effect; also recorded: mild antinociceptive activity
same,effect on minute ventilation (in words),Swiss-Webster mice [4],Neither buprenorphine nor B3G affected
same,effect on respiratory rate (in words),Swiss-Webster mice [4],Neither B3G nor N3G had a significant effect
same,"Concentration, Brain Homogenate",[5],1.4 ± 0.7 ng/mL
same,"Concentration, Plasma",[5],133 ± 44 ng/mL
same,Ki,"[3]; read-out: apparent Ki, Nociceptin",36 ± 0.3 µM
same,total locomotor activity compared to control / sedation (in words),Swiss-Webster mice [6],did not cause a decrease
